7 substances from PMC3183052, “Immunoprotectivity of HLA-A2 CTL Peptides Derived from Respiratory Syncytial Virus Fusion Protein in HLA-A2 Transgenic Mouse” (PLoS ONE, 2011) can be followed below.

The target in one experiment is T1, HLA-A*0201 (Homo sapiens, UniProt P04439, D140Y/D185E/D98H/E176V/E277Q/G131W/G231S/I119V/I121R/I166T/I218V/L300P/L318F/N151K/N90K/P208A/P217A/Q86G/Q94H/R138H/R169H/T345S).
T1 construct: Human T2 cells (purchased from the American Type Culture Collection, ATCC) (ATCC No. CRL-1992) expressing the HLA-A*0201 gene; endogenous in cells; host or cells: human T2 cells (ATCC CRL-1992)
The experiment in a line: T2 cell-stabilization assay (T2-binding). The following applies: for T2-binding Ratio of MFI: T2 cells 5×10^5, peptide 50 µg/mL + β2-microglobulin 5 µg/mL, 28°C 16–18 h, then brefeldin A 10 µg/mL 37°C 3 h, FITC anti-HLA-A2, flow cytometry, MFI relative to negative control HCV C55-74 (set as 1); for binding affinity, MFI higher than the baseline: T2 cell-based binding assay, baseline = negative control HCV C55-74, called modest binding affinity. As for the experimental part: T2 cells (5×10^5) cultured in 96-well U-bottom plates were incubated with the individual 9-mer synthetic peptides (50 µg/mL) and β2-microglobulin (5 µg/mL; Sigma-Aldrich) at 28°C for 16–18 hours. Subsequently, brefeldin A (10 µg/mL) was added and the cells were incubated at 37°C for another 3 hours, then washed and stained with fluorescence isothiocyanate (FITC)-conjugated mouse anti-human HLA-A2 antibody (SeroTec). Peptide-loaded T2 cells were acquired and analyzed on the FACScan flow cytometer using CellQuest software (Becton Dickinson). GLC-9 peptide was used as positive control (PC). The mean fluorescence intensity (MFI) represents the binding affinity of each peptide compared to MFI (set as MFI = 1) obtained from negative control (NC), which is T2 cells loaded with HCV peptide C55-74.
Twenty-five 9-mer synthetic peptides derived from the RSV F glycoprotein sequence presumed to encompass HLA-A*0201 binding motifs were synthesized (Table 1). Each was tested for its ability to bind HLA-A*0201 molecules by T2 cell-based binding assay (data not shown). The relative mean fluorescence intensity (MFI) obtained from the positive control (PC) peptide derived from Epstein-Barr virus capsid protein (GLC-9, a previously defined HLA-A*0201-restricted CTL epitope) was twofold (MFI = 1.96) compared to the baseline MFI = 1 obtained from the negative control (NC) treated with an unrelated peptide HCV C55-74 (a C57BL/6-specific CD4 epitope). […] The remaining peptides had no detectable binding to the HLA-A*0201 molecules. Apparently, the different MFIs generated by binding of RSV F-derived peptides to HLA-A*0201 reflects on the binding specificity of different peptides to a given HLA molecule.

In experiment [1] the test system is splenocytes from HLA-A*0201 transgenic C57BL/6 mice. Description: IFN-γ ELISPOT of splenocytes restimulated with peptide. The format is cell-based, mouse. Conditions: for IFN-γ ELISPOT, RSV: splenocytes of HLA-Tg B6 mice primed and boosted i.n. with 10^4 pfu RSV-B1; for IFN-γ ELISPOT, RSV / IFN-γ ELISPOT, rAd-F0: restimulated with 2 µg peptide, representative of two experiments, five mice per group; for IFN-γ ELISPOT, rAd-F0: splenocytes of HLA-Tg B6 mice primed and boosted i.n. with 10^7 pfu rAd-F0; for IFN-γ level in restimulated splenocytes (ELISPOT, text grading): splenocytes of rAd-F0- or RSV B1-primed and boosted HLA-Tg B6 mice, high = over 100 spots, moderate = over 50 spots. How it is done:
(§1) To screen the immunodominance of epitopic peptide in the induction of RSV-F specific Th1/Th2 expression, HLA-A*0201 transgenic C57BL/6 mice were anesthetized with isoflurane and immunized with 1×10^7 pfu/50 µL of rAd-F0 or rAd-LacZ or 1×10^4 live RSV B1 via the intranasal (i.n.) route. Twenty days later, the mice were given booster immunization i.n. with the same dose. After 10 days of boost, mice were sacrificed and splenocytes were isolated for the cytokine ELISPOT assay. For peptide-based vaccination, transgenic mice were immunized subcutaneously (s.c.) with 50 µg of the individual synthetic peptides emulsified in 25 µL of incomplete Freund's adjuvant (IFA) (Sigma-Aldrich) and then boosted after 10 days s.c. with the same dose of the respective peptides mixed with IFA. Mice were sacrificed 7 days after the booster and splenocytes were isolated for in vitro peptide-restimulation. For challenge studies, 10^7 pfu of live RSV-B1 was administered i.n. seven days after the booster immunization with peptide vaccines. Mice were sacrificed on day 4 post-challenge and the lung tissues were collected and subjected to further analysis by flow cytometry, ELISA, CTL assay and immunohistochemistry. Mice body weight was monitored daily.
(§2) […] RBC-free splenocyte suspensions prepared from the individual mice were seeded in individual wells of 96-well filtration plates (Millipore) precoated with capturing monoclonal antibodies for murine IL-2, IL-4 or IFN-γ (0.5 µg/ well) (eBioscience) and blocked with conditioned medium (CM) for 1 hour at room temperature. The splenocytes were added with the individual RSV F 9-mer synthetic peptides (2 µg each) or GLC-9 dissolved in CM (100 µL). The splenocytes added with Con A (10 µg/mL) were used as positive control. Unstimulated splenocytes were used as negative control. The plates were kept in a 37°C incubator equilibrated with 5% CO2 for 48 hours. The individual wells of the ELISPOT plates were washed three times with washing buffer (0.05% tween20 in PBS, PBS-T), and then 0.2 µg of the corresponding biotinylated detection monoclonal antibodies specific for IL-2, IL-4 and IFN-γ were added to detect the respective cytokines. After 2 hours of incubation at room temperature, the plates were washed and 100 µl of streptavidin-alkaline phosphatase (1∶ 250 dilution) was added to the individual wells, and the plates were incubated at room temperature for 45 minutes. Finally, the plates were washed four times with the wash buffer, and 100 µl of AEC (3-amine-9-ethylcarbazole, Sigma-Aldrich) substrate was added to each well and allowed to react for 30 minutes at room temperature in the dark. The plates were then washed with water, air-dried overnight, and the spots per well were scored using the immunospot counting reader (C.T.L. IMMUNOSPOT, CELLULAR TECHNOLOGY LTD). Results were expressed as the number of cytokine-secreting cells per 5×10^5 splenocytes seeded in the initial culture.
(§3) Figure 1 Induction of IFN-γ and IL-2 in splenocytes from RSV F peptide immunized HLA-A*0201 transgenic mice upon secondary recall. Splenocytes harvested on day 30 from HLA-A-Tg B6 mice primed and boosted at 20 days interval intranasally with 10^7 pfu of rAd-F0 (□) or 10^4 pfu of RSV-B1 (▪)were restimulated with 2 µg of the individual RSV F peptide or 10 µg/ml Con A for 5 days in the presence of murine IL-2 . After stimulation, 5×10^5 splenocytes were seeded to anti-IFN-γ (A) or anti-IL-2 (B) capture antibody coated ELISPOT plates for 2 days for ELISPOT assay as described in Materials and Methods. Cytokine-positive immunospots were developed and the results are expressed as the number of immunospots +/−2 standard deviations for each experimental group. Data is representative of results derived from two independent experiments, each with five mice per group.

Experiment [2] shares this test system. Description: IL-2 ELISPOT of splenocytes restimulated with peptide. The format is cell-based, mouse. The following applies: for IL-2 ELISPOT, RSV: splenocytes of HLA-Tg B6 mice primed and boosted i.n. with 10^4 pfu RSV-B1; for IL-2 ELISPOT, RSV / IL-2 ELISPOT, rAd-F0: restimulated with 2 µg peptide, representative of two experiments, five mice per group; for IL-2 ELISPOT, rAd-F0: splenocytes of HLA-Tg B6 mice primed and boosted i.n. with 10^7 pfu rAd-F0; for IL-2 level in restimulated splenocytes (ELISPOT, text grading): splenocytes of rAd-F0- or RSV B1-primed and boosted HLA-Tg B6 mice, high = over 100 spots, moderate = over 50 spots. As for the experimental part:
as §1, §2, §3

Turning to “20: HLA-A*0201-restricted 9-mer synthetic peptide from F protein of RSV-B1 strain (IMITTIIIV) [compound 20]”, the “T2-binding Ratio of MFI” value in the experiment with HLA-A*0201 turned out to be 1.03. Moreover, in experiment [1], the “IFN-γ ELISPOT, RSV” value was 9 cytokine-secreting cells per 5×10^5 splenocytes; the “IFN-γ ELISPOT, rAd-F0” value is 200 cytokine-secreting cells per 5×10^5 splenocytes; the “IFN-γ level in restimulated splenocytes (ELISPOT, text grading)” value (“IFN-γ level in restimulated splenocytes” below) is given as “over 100 spots”. In addition, in experiment [2], the “IL-2 ELISPOT, RSV” value is 24.5 cytokine-secreting cells per 5×10^5 splenocytes and the “IL-2 ELISPOT, rAd-F0” value was 32 cytokine-secreting cells per 5×10^5 splenocytes.

On to “21: HLA-A*0201-restricted 9-mer synthetic peptide from F protein of RSV-B1 strain (IIIVIIVIL) [compound 21]”, for which, in the experiment with HLA-A*0201, the “T2-binding Ratio of MFI” value is reported as 0.88. Besides, in experiment [1], the “IFN-γ ELISPOT, RSV” value was 80 cytokine-secreting cells per 5×10^5 splenocytes; the “IFN-γ ELISPOT, rAd-F0” value is 16.5 cytokine-secreting cells per 5×10^5 splenocytes; the “IFN-γ level in restimulated splenocytes” value was “over 50 spots”. Besides, in experiment [2], the “IL-2 ELISPOT, RSV” value was 21 cytokine-secreting cells per 5×10^5 splenocytes and the “IL-2 ELISPOT, rAd-F0” value is 2.5 cytokine-secreting cells per 5×10^5 splenocytes.

With “22: HLA-A*0201-restricted 9-mer synthetic peptide from F protein of RSV-B1 strain (VIIVILLSL) [compound 22]”, in the experiment with HLA-A*0201, the “T2-binding Ratio of MFI” value stood at 0.97. Besides, in experiment [1], the “IFN-γ ELISPOT, RSV” value is reported as 49 cytokine-secreting cells per 5×10^5 splenocytes; the “IFN-γ ELISPOT, rAd-F0” value is on record as 88.5 cytokine-secreting cells per 5×10^5 splenocytes; the “IFN-γ level in restimulated splenocytes” value is “over 50 spots”. Moreover, in experiment [2], the “IL-2 ELISPOT, RSV” value is listed as 55 cytokine-secreting cells per 5×10^5 splenocytes; the “IL-2 ELISPOT, rAd-F0” value is on record as 21.5 cytokine-secreting cells per 5×10^5 splenocytes; the “IL-2 level in restimulated splenocytes (ELISPOT, text grading)” value is listed as “over 50 spots”.

“24: HLA-A*0201-restricted 9-mer synthetic peptide from F protein of RSV-B1 strain (LLSLIAVGL) [compound 24]”: the “T2-binding Ratio of MFI” value with HLA-A*0201 amounted to 1.71. Moreover, in experiment [1], the “IFN-γ ELISPOT, RSV” value is on record as 0 cytokine-secreting cells per 5×10^5 splenocytes; the “IFN-γ ELISPOT, rAd-F0” value is 84.5 cytokine-secreting cells per 5×10^5 splenocytes; the “IFN-γ level in restimulated splenocytes” value is on record as “over 50 spots”. For the same substance, in experiment [2], the “IL-2 ELISPOT, RSV” value is listed as 42 cytokine-secreting cells per 5×10^5 splenocytes and the “IL-2 ELISPOT, rAd-F0” value is 5 cytokine-secreting cells per 5×10^5 splenocytes.

Regarding “25: HLA-A*0201-restricted 9-mer synthetic peptide from F protein of RSV-B1 strain (SLIAVGLLL) [compound 25]”, in the experiment with HLA-A*0201, the “binding affinity, MFI higher than the baseline” value was about 10% and the “T2-binding Ratio of MFI” value is reported as 1.42. In experiment [1], the “IFN-γ ELISPOT, RSV” value is listed as 96 cytokine-secreting cells per 5×10^5 splenocytes; the “IFN-γ ELISPOT, rAd-F0” value was 41 cytokine-secreting cells per 5×10^5 splenocytes; the “IFN-γ level in restimulated splenocytes” value was “over 50 spots”. Besides, in experiment [2], the “IL-2 ELISPOT, RSV” value is listed as 44.5 cytokine-secreting cells per 5×10^5 splenocytes and the “IL-2 ELISPOT, rAd-F0” value is 31 cytokine-secreting cells per 5×10^5 splenocytes.

As to “LLWVLLLWV [peptide 2, HLA-A*0201-restricted 9-mer synthetic peptide from F protein of RSV-B1 strain]”, the “T2-binding Ratio of MFI” value at HLA-A*0201 was 0.97. Also, in experiment [1], the “IFN-γ ELISPOT, RSV” value is given as 46.5 cytokine-secreting cells per 5×10^5 splenocytes; the “IFN-γ ELISPOT, rAd-F0” value was 46.5 cytokine-secreting cells per 5×10^5 splenocytes; the “IFN-γ level in restimulated splenocytes” value is on record as “over 50 spots”. Besides, in experiment [2], the “IL-2 ELISPOT, RSV” value is given as 42 cytokine-secreting cells per 5×10^5 splenocytes and the “IL-2 ELISPOT, rAd-F0” value is recorded as 34.5 cytokine-secreting cells per 5×10^5 splenocytes.

Consider “TLLLWVLLL [peptide 1, HLA-A*0201-restricted 9-mer synthetic peptide from F protein of RSV-B1 strain]”, for which, at HLA-A*0201, the “binding affinity, MFI higher than the baseline” value was about 10% and the “T2-binding Ratio of MFI” value was found to be 1.19. Further, in experiment [1], the “IFN-γ ELISPOT, RSV” value was 69.5 cytokine-secreting cells per 5×10^5 splenocytes; the “IFN-γ ELISPOT, rAd-F0” value was 33.5 cytokine-secreting cells per 5×10^5 splenocytes; the “IFN-γ level in restimulated splenocytes” value was “over 50 spots”. In experiment [2], the “IL-2 ELISPOT, RSV” value is recorded as 39.5 cytokine-secreting cells per 5×10^5 splenocytes; the “IL-2 ELISPOT, rAd-F0” value is 85.5 cytokine-secreting cells per 5×10^5 splenocytes; the “IL-2 level in restimulated splenocytes (ELISPOT, text grading)” value is listed as “over 50 spots”.
